Reference: patent US20250339392A1, “THE USE OF LRRC8 PROTEIN […] PREVENT AND TREAT CARDIOVASCULAR DISEASE” (Washington University, priority 2022, published 2025)
Changes are numbered by the printed parent chain. “Also recorded” adds a separate entry of the source.

What was measured:
MEG01 cells = assay: swell-activated currents in human MK cell line MEG01; format: cell-based; conditions: WT MEG01 cells, hypotonic solution (HYPO, 210 mOsm), 10 μM
Method: FIG. 29A-29C depicts how the human MK cell line, MEG01, had robust, SN-4XX-inhibited, swell-activated currents. FIG. 29A depicts current density over time in response to swelling with hypotonic solution (HYPO, 210 mOsm), and inhibition by 10 μM SN401 in WT MEG01 cells. FIG. 29B depicts the current-voltage relationship in WT MEG01 cells in response to HYPO and inhibition by 10 μM SN401. FIG. 29C depicts the current-voltage relationship in WT MEG01 cells in response to HYPO and inhibition by 3 μM SN418c.

LRRC8 channel [1] = target: T1, LRRC8 channel (Mus musculus, UniProt Q80WG5); assay: perforated patch-clamp of ICl,SWELL in freshly isolated murine megakaryocytes; format: cell-based; set-up: inhibition of ICI,SWELL currents: dose or concentration left out as unconfirmed; conditions: for inhibition of swell-activated current: murine MK, hypotonic solution (HYPO, 205 mOsm), 10 μM
T1 construct: endogenous in cells; host or cells: freshly isolated murine megakaryocytes (WT = LRRC8A fl/fl littermate controls)
T1 sequence (Q80WG5 1-810): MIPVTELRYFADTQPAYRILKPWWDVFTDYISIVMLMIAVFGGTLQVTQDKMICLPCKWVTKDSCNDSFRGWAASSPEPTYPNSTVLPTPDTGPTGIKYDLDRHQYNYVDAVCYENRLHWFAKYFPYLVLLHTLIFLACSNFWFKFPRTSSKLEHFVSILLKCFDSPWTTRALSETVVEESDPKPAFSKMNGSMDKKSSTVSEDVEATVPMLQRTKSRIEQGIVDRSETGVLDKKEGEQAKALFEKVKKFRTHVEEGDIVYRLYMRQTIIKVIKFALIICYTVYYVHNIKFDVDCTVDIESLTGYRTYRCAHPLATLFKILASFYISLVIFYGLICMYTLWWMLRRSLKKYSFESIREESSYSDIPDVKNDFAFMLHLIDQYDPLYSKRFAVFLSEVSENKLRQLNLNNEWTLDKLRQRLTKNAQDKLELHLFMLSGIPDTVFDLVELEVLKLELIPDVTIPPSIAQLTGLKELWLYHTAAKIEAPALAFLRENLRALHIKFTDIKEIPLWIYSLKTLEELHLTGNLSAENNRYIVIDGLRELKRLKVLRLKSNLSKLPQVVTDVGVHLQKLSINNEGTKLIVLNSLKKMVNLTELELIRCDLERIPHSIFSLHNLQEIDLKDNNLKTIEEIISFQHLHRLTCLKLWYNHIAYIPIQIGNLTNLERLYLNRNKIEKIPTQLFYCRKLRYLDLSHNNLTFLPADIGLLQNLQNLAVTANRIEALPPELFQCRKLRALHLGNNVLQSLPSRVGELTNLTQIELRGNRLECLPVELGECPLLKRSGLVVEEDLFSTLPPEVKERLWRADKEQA
Excerpt: FIG. 17A depicts a murine MK perforated patch-clamp. FIG. […] FIG. 17C depicts the current-voltage relationship in WT MK. FIG. 17D depicts the current-voltage relationship in cKO MK. FIG. 17E depicts mean outward and inward currents at +100 mV and −100 mV respectively, in WT, WT+SN401, and cKO MK. * p<0.05;** p<0.01.
To validate the biology implied by the human genetic studies, megakaryocyte (MK)-specific LRRC8A conditional knockout (cKO) mice were generated by crossing our LRRC8A^fl/fl mouse (SWELL1^fl/fl)^35-31 with the platelet factor4-driven Cre recombinase mouse (Pf4-Cre) to generate LRRC8A^fl/fl;Pf4-cre+/− (cKO) and littermate control LRRC8A^fl/fl mice (WT). Complete deletion of LRRC8A protein from cKO mouse platelets was confirmed while maintaining expression of the platelet marker b3 integrin (FIG. 16). To confirm that LRRC8 proteins form functional VRAC/ICI,SWELL channels in platelets, ICI,SWELL was measured in freshly isolated murine MK using the perforated patch configuration of the patch-clamp technique (FIG. 17A). […] This hypotonically-activated, swell-activated current is entirely abolished in cKO MKs (FIG. 17C-17D), confirming the SN-401-inhibited current in murine MKs to be entirely LRRC8A mediated.

human platelets = assay: platelet adhesion to collagen in microfluidic device, human whole blood; format: cell-based; conditions: 10 μM, collagen-coated microfluidic chamber, vs vehicle (DMSO)
Method: Human blood from 4 donors was collected into heparin anticoagulant, pooled and incubated with the fluorescently label DiOC6 (3,39-dihexyloxacarbocyanine iodide; Invitrogen) and either 10 μM SN-401 (DCPIB) or vehicle (DMSO) for 10 minutes. The whole blood was perfused through a polydimethysiloxane (PDMS) microfluidic device plasma bonded to a glass slide patterned with bovine type 1 collagen at a constant upstream pressure for 5 minutes followed by PBS for 5 minutes. Platelet accumulation was captured using an Olympus IX83 inverted microscope and the surface area coverage of platelets quantified using ImageJ.
FIG. 23A-23B depict how SN-401 impairs human platelet adhesion under physiologic shear-flow conditions in collagen-coated microfluidic flow chambers. n=4 blood draws from 4 subjects on 2 separate days. FIG. 23A depicts the percentage of surface area covered by adherent platelets over time in human whole-blood treated with vehicle or 10 μM SN-401. p=0.1 for 2-way Anova. FIG. 23B depicts the area under the curve (AUC) calculated from FIG. 23A for vehicle and SN-401. p=0.1 for t-test.

C57BL/6 mice = assay: tail wound thrombosis / tail bleeding assay; format: in vivo, mouse
Method: To determine if acute inhibition of LRRC8 channel activity affected platelet function in vivo, vehicle or the known LRRC8 channel inhibitor SN-401 (DCPIB) was administered to 25 to 30-week old C57BL/6 mice by IP injection, and in vivo thrombosis was quantified using an assay for tail wound thrombosis. Specifically, 20 minutes following IP injection with vehicle or 10 mg/kg SN-401, mouse tails were amputated 5 mm from the tail tip, placed in normal saline at 37° C. for 15 minutes, and the relative blood loss during that period was quantified by estimating the hemoglobin concentration in the normal saline by measuring light absorbance at 550 nm.
FIG. 24 depicts how SN-401 treatment increases mouse tail bleeding. Mice were pretreated with Vehicle or SN401 (10 mg/kg i.p×1) and tail bleeding quantified after 15 minutes by measuring absorbance of hemoglobin at 550 nm. * p<0.05.
To determine if acute inhibition of LRRC8 channel activity affected platelet function in vivo, vehicle or the known LRRC8 channel inhibitor SN-401 (DCPIB) was administered to 25 to 30-week old C57BL6 mice by IP injection, and in vivo thrombosis was quantified using an assay for tail wound thrombosis. […]

LRRC8 channel [2] = target: T2, LRRC8 channel (Homo sapiens, UniProt Q8IWT6); assay: swell-activated currents recorded from HEK cells; format: cell-based
T2 construct: endogenous in cells; host or cells: HEK cells
T2 sequence (Q8IWT6 1-810): T1 sequence (Q80WG5 1-810) with S75P, S76G, V86I, A276I, V591A, V715I, A722T, S792N
Excerpt: FIG. 25A-25D depict how congeners SN-418 and SN-418C are potent inhibitors of swell-activated currents recorded from HEK cells. FIG. 25A depicts the chemical structure of SN-418. FIG. 25B depicts the chemical structure of SN-418C. FIG. 25C depicts currents in the presence of varying concentrations of SN-418 and SN-401 normalized to the currents activated in hypotonic solution alone. […] FIG. 25D depicts currents in the presence of varying concentrations of SN-418C and SN-401 normalized to the currents activated in hypotonic solution alone.
Examples of these are SN-418 and SN-418C (FIG. 25A&25B), which include modification in the alkyl chain+/−cyclopropyl group to increase LRRC8 channel inhibition ˜10-fold over SN-401 (FIG. 25C&25D). SN-418C was then tested for antiplatelet activity in vitro.

CCCCC1(C2CCCC2)Cc2cc(OCCCC(=O)O)c(Cl)c(Cl)c2C1=O (stereo not drawn) [SN-401, 4-((2-Butyl-6,7-dichloro-2-cyclopentyl-1-oxo-2,3-dihydro-1H-inden-5-yl)oxy)butanoic acid]
inhibition of swell-activated (ICI,SWELL) current (MEG01 cells): completely inhibited
inhibition of swell-activated (ICI,SWELL) current (MEG01 cells; listed as SN401): inhibition
inhibition of ICI,SWELL currents (LRRC8 channel [1]; WT MK, hypotonic swelling): fully inhibited
inhibition of swell-activated current (LRRC8 channel [1]): robust inhibition
inhibition of swell-activated current (LRRC8 channel [1]; listed as SN401): inhibition
adhesion of human platelets to collagen (surface area coverage) (human platelets): significantly reduced; also recorded: significantly inhibited; also recorded: impairs
mean amount of tail blood loss relative to vehicle (C57BL/6 mice; 10 mg/kg IP, 20 minutes before tail amputation, 15 minutes, absorbance at 550 nm): 4 fold
tail bleeding (C57BL/6 mice; 10 mg/kg i.p. x1, hemoglobin absorbance at 550 nm after 15 minutes): increases
IC50 (LRRC8 channel [2]): 4 µM
